The source of these data is patent US6165986A (Taisho Pharmaceutical Co., Ltd., priority 1997, dated 2000).

What all share (type): cell-based
For one assay, the system named is E. faecalis CSJ 1212. The assay is described as follows: In vitro antibacterial activity (MIC), E. faecalis CSJ 1212. The following applies: Enterococcus faecalis, CSJ1212, sensitive disc media, Japan Society of Chemotherapy method, read-out: MIC value (Minimum Inhibitory Concentration). How it is done: (§1) The in vitro antibacterial activity of the compound obtained in Example 2 as an example of the compound of the present invention against various experimental bacteria was measured using sensitive disc media (produced by Eiken Chemical Co.) according to the MIC measuring method specified by the Japan Society of Chemotherapy. Clarithromycin was used as a comparative drug.

The subject of another assay is S. pneumoniae BM 211. The assay is described as follows: In vitro antibacterial activity (MIC), S. pneumoniae BM 211. The following applies: Streptococcus pneumoniae, BM211, sensitive disc media, Japan Society of Chemotherapy method, read-out: MIC value (Minimum Inhibitory Concentration). Here is the method: as §1
The test system of the next assay is S. pneumoniae BM 225. Kind of assay: In vitro antibacterial activity (MIC), S. pneumoniae BM 225. The note with it: Streptococcus pneumoniae, BM225, sensitive disc media, Japan Society of Chemotherapy method, read-out: MIC value (Minimum Inhibitory Concentration). Here is the method: as §1
A further assay relates to S. aureus 209P-JC. Kind of assay: In vitro antibacterial activity (MIC), S. aureus 209P-JC. The note with it: Staphylococcus aureus, sensitive disc media, Japan Society of Chemotherapy method, read-out: MIC value (Minimum Inhibitory Concentration). Here is the method: as §1
For a further assay, the system named is S. aureus Smith. Kind of assay: In vitro antibacterial activity (MIC), S. aureus Smith. The following applies: Staphylococcus aureus, sensitive disc media, Japan Society of Chemotherapy method, read-out: MIC value (Minimum Inhibitory Concentration). Here is the method:
as §1

A further assay concerns S. epidermidis IID 866. The assay is described as follows: In vitro antibacterial activity (MIC), S. epidermidis IID 866. The note with it: Staphylococcus epidermidis, IID866, sensitive disc media, Japan Society of Chemotherapy method, read-out: MIC value (Minimum Inhibitory Concentration). Here is the method: as §1
For assay [1], the system named is erythromycin-sensitive bacteria. Kind of assay: Antibacterial activity against erythromycin-sensitive bacteria. Here is the method: as §1
A further assay concerns Haemophilus influenzae. Kind of assay: Antibacterial activity against Haemophilus influenzae. Here is the method:
as §1

Assay [2] deals with erythromycin-resistant bacteria. Kind of assay: Antibacterial activity against erythromycin-resistant bacteria. Here is the method: as §1

In brackets after ≈: the same amount, converted by molar mass.

For `CC[C@H]1OC(=O)[C@H](C)[C@@H](O[C@H]2C[C@@](C)(OC)[C@@H](O)[C@H](C)O2)[C@H](C)[C@@H](O[C@@H]2O[C@H](C)C[C@H](N(C)C)[C@H]2O)[C@](C)(OC)C[C@@H](C)C(=O)[C@H](C)[C@@H](O)[C@]1(C)O` [Comparative drug, Clarithromycin, reference compound], the MIC with E. faecalis CSJ 1212 was 0.2 µg/mL (≈ 0.267 µM); in the assay with S. pneumoniae BM 211, above 100 µg/mL; in the assay with S. pneumoniae BM 225, 50 µg/mL (≈ 66.8 µM); with S. aureus 209P-JC, 0.1 µg/mL (≈ 0.134 µM); in the assay on S. aureus Smith, 0.2 µg/mL (≈ 0.267 µM); in the assay on S. epidermidis IID 866, 0.2 µg/mL (≈ 0.267 µM).
`CC[C@H]1OC(=O)[C@H](C)C(=O)[C@H](C)[C@@H](O[C@@H]2O[C@H](C)C[C@H](N(C)C)[C@H]2O)[C@](C)(OC)C[C@@H](C)C(=O)[C@H](C)[C@H]2N(CCN(C)Cc3cccnc3)C(=O)O[C@]12C` [Example 2, 11-[2-[N-methyl-N-(3-pyridylmethyl)amino]ethyl]amino-3,11-dideoxy-3-oxo-5-O-desosaminyl-6-O-methylerythronolide A 11,12-cyclic carbamate]: the “antibacterial activity (in words)” value (in [1]; in the assay on Haemophilus influenzae; in [2]) was “strong antibacterial activity” throughout. The MIC in the assay with E. faecalis CSJ 1212 is 0.05 µg/mL (≈ 0.0657 µM); in the assay with S. pneumoniae BM 211 it was 50 µg/mL (≈ 65.7 µM); in the assay with S. pneumoniae BM 225, 0.39 µg/mL (≈ 0.513 µM); in the assay with S. aureus 209P-JC, 0.05 µg/mL (≈ 0.0657 µM); with S. aureus Smith, 0.1 µg/mL (≈ 0.131 µM); with S. epidermidis IID 866 it was 0.1 µg/mL (≈ 0.131 µM).
